From publication PMC6271944 (Molecules, 2014)

Experiments:
Assay type in all cases: in vitro ADME
[1] = molecular target: T1, CYP2C8 (Homo sapiens, UniProt P10632); assay: CYP inhibition in human liver microsomes, substrate cocktail, LC-MS/MS (paclitaxel); details: metabolite 6α-hydroxypaclitaxel, read-out: IC50 for HLM, CYP2C8
T1 construct: Pooled human liver microsomes (HLM, LOT 32556) were purchased from BD Gentest Corporation; tissue BD Gentest Corporation LOT 32556; host or cells: pooled human liver microsomes
T1 sequence (P10632 1-490): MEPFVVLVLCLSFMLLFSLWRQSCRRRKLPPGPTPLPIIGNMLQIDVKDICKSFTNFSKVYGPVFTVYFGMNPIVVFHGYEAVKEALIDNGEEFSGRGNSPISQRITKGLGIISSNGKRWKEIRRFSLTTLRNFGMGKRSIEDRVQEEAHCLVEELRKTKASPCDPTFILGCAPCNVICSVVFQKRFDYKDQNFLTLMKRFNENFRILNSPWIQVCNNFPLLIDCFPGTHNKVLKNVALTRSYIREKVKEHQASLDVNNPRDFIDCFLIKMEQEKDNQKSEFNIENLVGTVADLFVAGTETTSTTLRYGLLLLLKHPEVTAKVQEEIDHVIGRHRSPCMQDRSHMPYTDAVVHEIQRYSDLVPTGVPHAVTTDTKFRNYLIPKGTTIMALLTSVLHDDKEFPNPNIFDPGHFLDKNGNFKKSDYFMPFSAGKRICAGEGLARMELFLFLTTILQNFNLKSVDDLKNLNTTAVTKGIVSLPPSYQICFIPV
Source text: (§1) Positive controls (furafyline for CYP1A2, montelukast for CYP2C8, sulfaphenazole for CYP2C9, S-(+)-N-3-benzylnirvanol for CYP2C19, quinidine for CYP2D6, ketoconazole for CYP3A4) and specific substrates (phenacetin for CYP1A2, paclitaxel for CYP2C8, diclofenac for CYP2C9, S-mephenytoin for CYP2C19, dextromethorphan for CYP2D6, midazolam for CYP3A4) are consistent with our previous papers. The substrates were used at concentrations approximately equal to their respective Michaelis-Menten constant (Km) values: 10 μM phenacetin, 5 μM paclitaxel, 5 μM diclofenac, 200 μM S-mephenytoin, 5 μM dextromethorphan, and 2 μM midazolam. NADP^+ was added after a 15 min preincubation of all other components at 37 °C. After a given incubation time (30 min), the reactions were terminated by addition of 60 μL ice-cold acetonitrile containing gemfibrozil and buspirone as internal standards. Incubation samples were stored at −80 °C until used in liquid chromatography-tandem mass spectrometry (LC-MS/MS) analysis. The mixture was centrifuged at 3,500 rpm for 5 min. The supernatant was mixed with equal volume of a 1:1 mixture of methanol and water and 20 μL of the final mixture was used for LC-MS/ MS analysis. […]
(§2) The CYP inhibition potential were evaluated by measuring the formation of one or more metabolites of the test substrates. […]

[2] = molecular target: T2, CYP2C7 (Rattus norvegicus, UniProt P05179); assay: CYP inhibition in rat liver microsomes, substrate cocktail, LC-MS/MS (paclitaxel); details: 95% CI in brackets, read-out: IC50 for RLM, CYP2C7 (table row CYP2C8)
T2 construct: Pooled rat liver microsomes were prepared from three male Sprague-Dawley rats; from tissue; host or cells: pooled liver microsomes of three male Sprague-Dawley rats, prepared at HD Biosciences Co
T2 sequence (P05179 1-490): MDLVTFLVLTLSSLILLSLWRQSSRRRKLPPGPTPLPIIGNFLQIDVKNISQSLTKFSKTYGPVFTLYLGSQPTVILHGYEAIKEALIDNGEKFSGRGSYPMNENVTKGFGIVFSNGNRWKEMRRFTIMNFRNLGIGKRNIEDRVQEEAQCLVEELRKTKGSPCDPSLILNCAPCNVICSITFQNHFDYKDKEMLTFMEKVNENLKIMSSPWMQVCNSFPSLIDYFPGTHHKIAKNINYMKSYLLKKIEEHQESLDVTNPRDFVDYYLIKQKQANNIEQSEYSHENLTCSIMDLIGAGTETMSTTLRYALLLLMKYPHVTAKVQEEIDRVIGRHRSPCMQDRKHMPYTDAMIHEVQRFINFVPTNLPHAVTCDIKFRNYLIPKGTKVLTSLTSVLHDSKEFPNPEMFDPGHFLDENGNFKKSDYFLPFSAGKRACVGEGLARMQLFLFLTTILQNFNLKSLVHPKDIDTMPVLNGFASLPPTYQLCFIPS
Source text: as §1, §2

[3] = molecular target: T3, CYP2C11 (Rattus norvegicus, UniProt P08683); assay: CYP inhibition in rat liver microsomes, substrate cocktail, LC-MS/MS (diclofenac); details: pH 7.4, probe diclofenac 5 μM, read-out: IC50 for RLM, CYP2C11 (table row CYP2C9)
T3 sequence (P08683 1-500): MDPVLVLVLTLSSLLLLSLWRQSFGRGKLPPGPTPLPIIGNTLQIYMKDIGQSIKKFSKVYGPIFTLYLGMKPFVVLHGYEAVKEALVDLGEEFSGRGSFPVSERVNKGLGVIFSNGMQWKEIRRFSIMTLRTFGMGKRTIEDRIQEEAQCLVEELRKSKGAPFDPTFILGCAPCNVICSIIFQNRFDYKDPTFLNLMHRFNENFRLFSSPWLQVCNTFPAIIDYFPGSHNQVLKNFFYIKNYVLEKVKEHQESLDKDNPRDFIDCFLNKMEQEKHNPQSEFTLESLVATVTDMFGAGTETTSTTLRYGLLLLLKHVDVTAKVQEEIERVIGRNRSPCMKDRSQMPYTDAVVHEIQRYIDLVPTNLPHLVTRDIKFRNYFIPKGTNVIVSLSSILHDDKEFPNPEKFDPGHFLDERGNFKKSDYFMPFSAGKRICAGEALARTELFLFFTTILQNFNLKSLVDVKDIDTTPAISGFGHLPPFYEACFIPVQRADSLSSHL
Source text: as §1, §2

[4] = molecular target: T4, CYP2C19 (Homo sapiens, UniProt P33261); assay: CYP inhibition in human liver microsomes, substrate cocktail, LC-MS/MS (S-mephenytoin); details: metabolite 4-hydroxymephenytoin, 95% CI in brackets, read-out: IC50 for HLM, CYP2C19
T4 construct: Pooled human liver microsomes (HLM, LOT 32556) were purchased from BD Gentest Corporation; tissue BD Gentest Corporation LOT 32556; host or cells: pooled human liver microsomes
T4 sequence (P33261 whole entry): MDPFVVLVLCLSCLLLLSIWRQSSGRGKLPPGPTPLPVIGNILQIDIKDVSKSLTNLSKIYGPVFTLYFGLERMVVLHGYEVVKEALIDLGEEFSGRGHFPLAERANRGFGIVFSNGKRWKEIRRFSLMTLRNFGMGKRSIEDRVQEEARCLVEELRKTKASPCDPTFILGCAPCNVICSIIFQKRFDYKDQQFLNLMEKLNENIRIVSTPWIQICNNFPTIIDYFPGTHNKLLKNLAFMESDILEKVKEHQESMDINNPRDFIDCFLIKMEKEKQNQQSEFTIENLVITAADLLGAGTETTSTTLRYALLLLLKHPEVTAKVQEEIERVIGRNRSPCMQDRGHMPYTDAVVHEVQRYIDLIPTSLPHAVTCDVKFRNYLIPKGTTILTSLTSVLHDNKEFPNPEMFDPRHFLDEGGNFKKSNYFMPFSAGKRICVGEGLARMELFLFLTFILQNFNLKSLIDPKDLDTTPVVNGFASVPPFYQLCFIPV
Source text: as §1, §2

O=C(O)[C@H]1O[C@@H](Oc2cc3oc(-c4ccc(O)cc4)cc(=O)c3c(O)c2O)[C@H](O)[C@@H](O)[C@@H]1O [scutellarin, Scutellarin]
IC50 [1]: > 100 µM
IC50 [2]: 63.1 µM
IC50 at 30 min [3]: > 100 µM
IC50 [4]: 63.8 µM
